System: T1, monoclonal antibody 1B11 (LIN/1B11)
T1 construct: whole monoclonal antibody, IgG1
Experiment: indirect competitive ELISA with LIN-NaIO4-OVA coating antigen
Type: binding

CCC[C@@H]1C[C@@H](C(=O)N[C@@H]([C@H]2O[C@H](SC)[C@H](O)[C@@H](O)[C@H]2O)[C@@H](C)O)N(C)C1 [LIN, lincomycin]
IC50: 0.57 ± 0.03 µg/kg
